Data from paper PMC10372819 (Acta Pharmaceutica Sinica. B, 2023).

Columns and labels:
WT HIV-1 [1] = settings: Selectivity index CC50/EC50 (WT)
WT HIV-1 [2] = assay: microbe, parasite or virus in culture; settings: Human immunodeficiency virus 1, MT4, read-out: WT EC50
HIV-1 mutant L100I = assay: microbe, parasite or virus in culture; settings: Human immunodeficiency virus 1, MT4, read-out: EC50 L100I
HIV-1 mutant K103N = assay: microbe, parasite or virus in culture; settings: Human immunodeficiency virus 1, MT4, read-out: EC50 K103N
HIV-1 mutant Y188L = assay: microbe, parasite or virus in culture; settings: Human immunodeficiency virus 1, MT4, read-out: EC50 Y188L
HIV-1 mutant E138K = assay: microbe, parasite or virus in culture; settings: Human immunodeficiency virus 1, MT4, read-out: EC50 E138K
[3] = Cytotoxicity in uninfected; settings: human, mock-infected (uninfected) MT-4 cells, CC50, uninfected MT-4 cells, MTT
CYP2D6 = CYP2D6 (Homo sapiens, UniProt P10635); assay: biochemical
CYP2D6, sequence (P10635 whole entry): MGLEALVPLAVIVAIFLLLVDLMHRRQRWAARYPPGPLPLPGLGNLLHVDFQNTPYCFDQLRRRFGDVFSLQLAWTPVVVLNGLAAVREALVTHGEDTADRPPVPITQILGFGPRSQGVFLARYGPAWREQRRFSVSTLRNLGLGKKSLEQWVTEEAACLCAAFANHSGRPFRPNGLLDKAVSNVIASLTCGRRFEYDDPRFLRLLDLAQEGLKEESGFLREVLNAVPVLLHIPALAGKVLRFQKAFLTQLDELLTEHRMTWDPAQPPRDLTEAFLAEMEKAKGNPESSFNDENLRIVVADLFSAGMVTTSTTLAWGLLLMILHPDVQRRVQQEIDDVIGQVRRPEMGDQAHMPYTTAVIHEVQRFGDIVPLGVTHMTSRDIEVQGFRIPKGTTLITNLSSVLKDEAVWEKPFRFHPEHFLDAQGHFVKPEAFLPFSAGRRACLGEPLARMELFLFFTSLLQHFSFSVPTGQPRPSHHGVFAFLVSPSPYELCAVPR

## COc1cc(-c2ccncc2)ccc1Oc1nc(Nc2ccc(C#N)cc2)ncc1CO [9i, 4-((5-(Hydroxymethyl)-4-(2-methoxy-4-(pyridin-4-yl)phenoxy)pyrimidin-2-yl)amino)benzonitrile]
WT HIV-1 [1]
  SI: 1679
WT HIV-1 [2]
  EC50: 18.2 ± 6.8 nM
HIV-1 mutant L100I
  EC50: 560 ± 137 nM
HIV-1 mutant K103N
  EC50: 95.6 ± 17.6 nM
HIV-1 mutant Y188L
  EC50: 1750 ± 123 nM
HIV-1 mutant E138K
  EC50: 217 ± 18.4 nM
[3]
  CC50 at 5 days: 30500 ± 3400 nM

## N#Cc1ccc(Nc2ncc(CO)c(Oc3ccc(-c4ccncc4)cc3F)n2)cc1 [9j, 4-((4-(2-Fluoro-4-(pyridin-4-yl)phenoxy)-5-(hydroxymethyl)pyrimidin-2-yl)amino)benzonitrile]
WT HIV-1 [1]
  SI: >10,256
WT HIV-1 [2]
  EC50: 4.7 ± 0.7 nM
HIV-1 mutant L100I
  EC50: 327 ± 44.9 nM
HIV-1 mutant K103N
  EC50: 35.1 ± 8.1 nM
HIV-1 mutant Y188L
  EC50: > 48400 nM
HIV-1 mutant E138K
  EC50: 42.4 ± 6.7 nM
[3]
  CC50 at 5 days: > 48400 nM

## N#Cc1ccc(Nc2ncc(CO)c(Oc3ccc(-c4ccncc4)cc3Cl)n2)cc1 [9k, 4-((4-(2-Chloro-4-(pyridin-4-yl)phenoxy)-5-(hydroxymethyl)pyrimidin-2-yl)amino)benzonitrile]
WT HIV-1 [1]
  SI: 53,539
WT HIV-1 [2]
  EC50: 4.9 ± 0.9 nM
HIV-1 mutant L100I
  EC50: 327 ± 54.8 nM
HIV-1 mutant K103N
  EC50: 35.4 ± 12.3 nM
HIV-1 mutant Y188L
  EC50: 43000 nM
HIV-1 mutant E138K
  EC50: 45.9 ± 5.9 nM
[3]
  CC50 at 5 days: 264000 ± 10200 nM

## N#Cc1ccc(Nc2ncc(CO)c(Oc3c(F)cc(-c4ccncc4)cc3F)n2)cc1 [9l, 4-((4-(2,6-Difluoro-4-(pyridin-4-yl)phenoxy)-5-(hydroxymethyl)pyrimidin-2-yl)amino)benzonitrile]
WT HIV-1 [1]
  SI: 138,219
WT HIV-1 [2]
  EC50: 0.9 nM
HIV-1 mutant L100I
  EC50: 22.2 ± 6.2 nM
HIV-1 mutant K103N
  EC50: 3 ± 0.3 nM
HIV-1 mutant Y188L
  EC50: 720 ± 272 nM
HIV-1 mutant E138K
  EC50: 13.6 ± 1.2 nM
[3]
  CC50 at 5 days: 128000 ± 5500 nM

## N#Cc1ccc(Nc2ncc(CO)c(Oc3ccc(-c4cccnc4)cc3F)n2)cc1 [9m, 4-((4-(2-Fluoro-4-(pyridin-3-yl)phenoxy)-5-(hydroxymethyl)pyrimidin-2-yl)amino)benzonitrile]
WT HIV-1 [1]
  SI: 583
WT HIV-1 [2]
  EC50: 306 ± 43.6 nM
HIV-1 mutant L100I
  EC50: 13700 ± 1140 nM
HIV-1 mutant K103N
  EC50: 1690 ± 165 nM
HIV-1 mutant Y188L
  EC50: > 178000 nM
HIV-1 mutant E138K
  EC50: 2490 ± 388 nM
[3]
  CC50 at 5 days: 178000 ± 32900 nM

## COc1ccc2c(c1)[C@]13CCCC[C@@H]1[C@H](C2)N(C)CC3 [Dextromethorphan]
CYP2D6
  IC50: 39.7 nM

## O=C1Nc2ccc(Cl)cc2[C@@](C#CC2CC2)(C(F)(F)F)O1 [EFV, efavirenz, reference compound]
WT HIV-1 [2]
  EC50: 7 nM
HIV-1 mutant L100I
  EC50: 440 ± 70 nM
HIV-1 mutant K103N
  EC50: 102 ± 50 nM
HIV-1 mutant Y188L
  EC50: 290 ± 40 nM
HIV-1 mutant E138K
  EC50: 6 nM
[3]
  CC50 at 5 days: > 6300 nM

## Cc1cc(C#N)cc(C)c1Oc1nc(Nc2ccc(C#N)cc2)nc(N)c1Br [ETR, etravirine, reference compound]
WT HIV-1 [2]
  EC50: 6 nM
HIV-1 mutant L100I
  EC50: 7 nM
HIV-1 mutant K103N
  EC50: 3 nM
HIV-1 mutant Y188L
  EC50: 20 ± 10 nM
HIV-1 mutant E138K
  EC50: 7 ± 10 nM
[3]
  CC50 at 5 days: > 4600 nM

## Cc1ccnc2c1NC(=O)c1cccnc1N2C1CC1 [NVP, nevirapine, reference compound]
HIV-1 mutant L100I
  EC50: 2100 ± 750 nM
HIV-1 mutant K103N
  EC50: > 10100 nM
HIV-1 mutant Y188L
  EC50: > 15900 nM
HIV-1 mutant E138K
  EC50: 2100 ± 30 nM
[3]
  CC50 at 5 days: > 15000 nM
